{
  "source": "patent US20250113825A1",
  "about": "(priority 2022, published 2025)",
  "key": {"[1]": {"system": "Pyricularia oryzae causing neck blast", "test": "whole plant or invertebrate", "type": "in vivo", "settings": "for Observed efficacy of stobilurin fungicide (%): Table 5(a), Picoxystrobin 67.8 g a.i./ha, Trifloxystrobin 100 g a.i./ha alone"}, "rice neck blast fungi": {"system": "rice neck blast fungi", "type": "in vivo, Pyricularia oryzae", "settings": "Prothioconazole 120 gai/ha alone or with Azoxystrobin 280, Picoxystrobin 67, Trifloxystrobin 100 gai/ha"}},
  "data": [
    {"smiles": "CC(C)OC(=O)C(C(=O)OC(C)C)=C1SCCS1", "note": "[Isoprothiolane]", "values": [
      {"measurement": "Observed efficacy of isoprothiolane (%)", "setting": "[1]; Table 5(b), Isoprothiolane 250 g a.i./ha alone", "result": 48, "unit": "%"}
    ]},
    {"smiles": "CO/C=C(/C(=O)OC)c1ccccc1COc1cccc(C(F)(F)F)n1", "note": "[Picoxystrobin]", "values": [
      {"measurement": "Observed efficacy of stobilurin fungicide (%)", "setting": "[1]", "result": 42, "unit": "%"}
    ]},
    {"smiles": "OC(Cc1ccccc1Cl)(Cn1nc[nH]c1=S)C1(Cl)CC1", "note": "(centres unmarked) [Prothioconazole, 2-[2-(1-chlorocyclopropyl)-3-(2-chlorophen-yl)-2-hydroxypropyl]-2,4-dihydro-[1,2,4-]-triazole-3-thione]", "values": [
      {"measurement": "% Control (rice neck blast)", "setting": "rice neck blast fungi", "result": 41.49, "unit": "%"},
      {"measurement": "inhibition at 120 g/ha", "setting": "[1]; Pyricularia oryzae, read-out: Observed efficacy of demethylation inhibitor fungicide (%)", "result": 49, "unit": "%"}
    ]},
    {"smiles": "CON=C(C(=O)OC)c1ccccc1CON=C(C)c1cccc(C(F)(F)F)c1", "note": "[Trifloxystrobin]", "values": [
      {"measurement": "Observed efficacy of stobilurin fungicide (%)", "setting": "[1]", "result": 60, "unit": "%"}
    ]}
  ]
}
